# Measured values as given in patent US6221865A, “Inhibitors of protein isoprenyl transferases” (priority 1998, dated 2001).
# Where a name gives a salt, the structure may show the parent alone.
# Biological target: T1, protein farnesyltransferase (Rattus norvegicus, UniProt Q02293+Q04631)
# T1 construct: The enzyme is purified according to Reiss, Y., et al., Cell, 62: 81-88 (1990), utilizing steps one through three; from tissue; host or cells: rat brain
# Test: Inhibition of farnesyltransferase (scintillation proximity assay, rat brain enzyme, biotin-K Ras B fragment substrate)
# Type: biochemical
# Conditions: 1 × 10^-5 M (Table 1)
# Summary of the method: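 Enzyme from rat brain, partly purified (steps one to three), assayed by SPA kit using 0.1 mM final biotin-K Ras B peptide as prenyl acceptor rather than biotin-lamin. Activity given as percent inhibition.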
# T1 sequence (Q02293 whole entry, one chain of several): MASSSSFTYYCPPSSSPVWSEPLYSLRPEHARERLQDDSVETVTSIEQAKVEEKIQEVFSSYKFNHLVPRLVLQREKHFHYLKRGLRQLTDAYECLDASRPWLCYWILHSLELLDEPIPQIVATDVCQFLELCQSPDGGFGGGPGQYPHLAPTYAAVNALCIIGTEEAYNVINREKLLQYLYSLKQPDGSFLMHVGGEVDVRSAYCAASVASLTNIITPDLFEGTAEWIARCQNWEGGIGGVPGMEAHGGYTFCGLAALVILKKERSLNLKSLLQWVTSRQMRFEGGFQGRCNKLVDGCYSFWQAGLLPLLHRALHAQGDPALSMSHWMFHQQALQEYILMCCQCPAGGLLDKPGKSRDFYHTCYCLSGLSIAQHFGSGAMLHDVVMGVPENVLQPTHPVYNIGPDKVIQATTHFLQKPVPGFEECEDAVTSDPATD
row,SMILES,% inhibition of farnesyltransferase at 1 × 10^-5 M [%]
1,CSCC[C@H](NC(=O)c1ccc(CNc2nnc(C)s2)cc1-c1ccccc1)C(=O)O [Example 371],66
2,CSCC[C@H](NC(=O)c1ccc(CNc2ccc3c(c2)Cc2ccccc2-3)cc1-c1ccccc1)C(=O)O [Example 706],53
3,CSCC[C@H](NC(=O)c1ccc(CNc2ccc3c(c2)CCC3)cc1-c1ccccc1)C(=O)O [Example 705],72

# Same assay, conditions: 1 × 10^-6 M (Table 2)
row,SMILES,% inhibition of farnesyltransferase at 1 × 10^-6 M [%]
1,CSCC[C@H](NC(=O)c1ccc(CN(Cc2ccccc2)Cc2ccccc2)cc1-c1ccccc1C)C(=O)O [Example 512],94
2,CSCC[C@H](NC(=O)c1ccc(COCC2CCOC2)cc1-c1ccccc1)C(=O)O (stereo partly drawn) [Example 287],24
3,CSCC[C@H](NC(=O)c1ccc(SCCc2ccccc2)cc1-c1ccccc1C)C(=O)O [Example 498],98
4,CSCCC(NC(=O)c1ccc(NC(=O)c2cncnc2)cc1-c1ccccc1)C(=O)O (stereo not drawn) [Example 219],56
5,CSCC[C@H](NC(=O)c1ccc(CNC(CO)Cc2ccc(Cl)cc2)cc1-c1ccccc1)C(=O)O (stereo partly drawn) [Example 662],68
6,CSCC[C@H](NC(=O)c1ccc(CN(CCc2ccccc2)Cc2ccccc2)cc1-c1ccccc1C)C(=O)O [Example 513],96
7,CSCC[C@H](NC(=O)c1ccc(OCCCOc2ccccc2)cc1-c1ccccc1C)C(=O)O [Example 566],98
8,CSCC[C@H](NC(=O)c1ccc(COC2CCN(Cc3ccccc3)C2)cc1-c1ccccc1C)C(=O)O (stereo partly drawn) [Example 987],93

# Same assay, conditions: 1 × 10^-7 M (Table 3)
row,SMILES,% inhibition of farnesyltransferase at 1 × 10^-7 M [%]
1,CSCC[C@H](NC(=O)c1ccc(CN[C@@H](CO)C2CCCCC2)cc1-c1ccccc1C)C(=O)O [Example 604],86
2,COc1ccccc1CCOCc1ccc(C(=O)N[C@@H](CCSC)C(=O)O)c(-c2ccccc2C)c1 [Example 589],91
3,CSCC[C@H](NC(=O)c1ccc(COCc2cc3ccccc3o2)cc1-c1ccccc1C)C(=O)[O-].[Li+] [Example 533],91
4,CCCC[C@H](CC1CCCCC1)NCc1ccc(C(=O)N[C@@H](CCSC)C(=O)O)c(-c2ccccc2C)c1 [Example 615],94
5,CSCC[C@H](NC(=O)c1ccc(CSc2nc3ccccc3c(=O)[nH]2)cc1-c1ccccc1C)C(=O)O [Example 745],93
6,CSCC[C@H](NC(=O)c1ccc(COCc2ccccc2)cc1-c1ccccc1C)C(=O)[O-].[Li+] [Example 571],88
7,COc1ccc(-c2ccc(COCc3ccc(C(=O)N[C@@H](CCSC)C(=O)[O-])c(-c4ccccc4C)c3)o2)cc1.[Li+] [Example 446],91
8,CSCC[C@H](NC(=O)c1ccc(COCc2ccc(-c3ccc(Cl)cc3)o2)cc1-c1ccccc1C)C(=O)NS(C)(=O)=O [Example 818],78
9,CSCC[C@H](NC(=O)c1ccc(CN[C@H](/C=C\CC(C)C)CC2CCCCC2)cc1-c1ccccc1C)C(=O)O [Example 526],96

# Same assay, conditions: 1 × 10^-8 M (Table 4)
row,SMILES,% inhibition of farnesyltransferase at 1 × 10^-8 M [%]
1,CSCC[C@H](NC(=O)c1ccc(COCc2ccccc2Cl)cc1-c1ccccc1C)C(=O)[O-].[Li+] [Example 930],66
2,CCCCN(CCc1ccccc1)Cc1ccc(C(=O)N[C@@H](CCSC)C(=O)O)c(-c2ccccc2C)c1 [Example 928],84
3,CSCC[C@H](NC(=O)c1ccc(CN(CCC2CCCCC2)Cc2ccccc2)cc1-c1ccccc1C)C(=O)[O-].[Li+] [Example 605],68
4,CSCC[C@H](NC(=O)c1ccc(CN(Cc2ccccc2)c2cccc(Cl)c2)cc1-c1ccccc1C)C(=O)O [Example 847],85
5,CCCCC(OCc1ccc(C(=O)N[C@@H](CCSC)C(=O)[O-])c(-c2ccccc2C)c1)c1ccc(-c2ccc(Cl)cc2)o1.[Li+] (stereo partly drawn) [Example 826],92
6,CSCC[C@H](NC(=O)c1ccc(COCCCC23CC4CC(CC(C4)C2)C3)cc1-c1ccccc1C)C(=O)[O-].[Li+] [Example 599],86

# Same assay, conditions: read-out: % inhibition at 0.01 μM (**); Table 6, ** = 0.01 μM (footnote); title prints 0.01 mM
row,SMILES,inhibition at 0.01 µM [%]
1,"CSCC[C@H](NC(=O)c1ccc(Cc2nnnn2CC2CCCCC2)cc1-c1ccccc1C)C(=O)O [Example 1100, N-[4-(1-cyclohexylmethyltetrazol-5-ylmethyl)-2-(2-methylphenyl)benzoyl]methionine]",82

# Same assay, conditions: read-out: % inhibition at 0.1 μM (*); Table 6, * = 0.1 μM (footnote); title prints 0.1 mM
row,SMILES,inhibition at 0.1 µM [%]
1,"CSCC[C@H](NC(=O)c1ccc(CN2CCC[C@H]2CN2CCCCC2)cc1-c1ccccc1C)C(=O)O [Example 1125, N-[4-(2-piperidin-1-ylmethylpyrrolidin-1-ylmethyl)-2-(2-methylphenyl)benzoyl]methionine]",92
2,"COC1CC(COCC2CCCCC2)N(Cc2ccc(C(=O)NC(CCSC)C(=O)O)c(-c3ccccc3C)c2)C1 [Example 1123, N-[4-(2(S)-cyclohexylmethoxymethyl-4(R-methoxypyrrolidin-1-ylmethyl)-2-(2-methylphenyl)benzoyl]methionine]",90

# Same assay, conditions: read-out: % inhibition of farnesyltransferase at 1 × 10^-6 M; 1 × 10^-6 M (Table 2)
row,SMILES,inhibition at 1 µM [%]
1,"CSCC[C@H](NC(=O)c1ccc(-c2cccc(-c3ccccc3)c2)cc1-c1ccccc1C)C(=O)O [Example 787, N-[4-(3-phenylphenyl)-2-(2-methylphenyl)benzoyl]methionine lithium salt]",70
2,"CSCC[C@H](NC(=O)c1ccc(C[C@H]2CC[C@@H](c3ccccc3)CC2)cc1-c1ccccc1C)C(=O)O [Example 790, N-[4-syn-(4-phenylcyclohexylmethyl)-2-(2-methylphenyl)benzoyl]methionine lithium salt]",88
3,CSCC[C@H](NC(=O)c1ccc(CN(C(C)C)C2(CC3CCCCC3)CCCC2)cc1-c1ccccc1C)C(=O)O [Example 344],95
4,CSCC[C@H](NC(=O)c1ccc(CN(C(C)C)C2(Cc3ccccc3)CC2)cc1-c1ccccc1C)C(=O)O [Example 325],99
5,"CSCC[C@H](NC(=O)c1ccc(/C=C/CC2CCCCC2)cc1-c1ccccc1C)C(=O)O [Example 471, N-[4-(3-cyclohexylprop-1-enyl)-2-(2-methylphenyl)benzoyl]methionine lithium salt]",94
6,CSCC[C@H](NC(=O)c1ccc(CN(C2CC2)C2(CC3CCCCC3)CCC2)cc1-c1ccccc1C)C(=O)O [Example 330],98
7,CSCC[C@H](NC(=O)c1ccc(CN(C(C)C)C2(CC3CCCCC3)CC2)cc1-c1ccccc1C)C(=O)O [Example 326],91

# Same assay, conditions: read-out: % inhibition of farnesyltransferase at 1 × 10^-7 M; 1 × 10^-7 M (Table 3)
row,SMILES,inhibition at 0.1 µM [%]
1,"CSCC[C@H](NC(=O)c1ccc(/C=C/c2ccc(Oc3ccccc3Cl)cc2)cc1-c1ccccc1C)C(=O)O [Example 854, N-[4-(2-(4-(2-chlorophenoxy)phenyl)ethen-1-yl)-2-(2-methylphenyl)benzovyl]methionine]",78
2,"CCCC(CCC)NOCc1ccc(C(=O)N[C@@H](CCSC)C(=O)O)c(-c2ccccc2C)c1 [Example 929, N-[4-(N-Hept-4-ylaminooxymethyl)-2-(2-methylphenyl)benzoyl]methionine]",81

# Same assay, conditions: read-out: % inhibition of farnesyltransferase at 1 × 10^-8 M; 1 × 10^-8 M (Table 4)
row,SMILES,inhibition at 0.01 µM [%]
1,"CSCC[C@H](NC(=O)c1ccc(/C=C/c2ccc(Oc3cccc(Cl)c3)cc2)cc1-c1ccccc1C)C(=O)O [Example 858, N-[4-(2-(4-(3-chlorophenoxy)phenyl)ethen-1-yl)-2-(2-methylphenyl)benzoyl]methionine]",60
